Test results reported in patent US10189840B2, “Substituted tricyclic heterocyclic compounds” (BRISTOL-MYERS SQUIBB COMPANY, priority 2015, dated 2019).

Target: TNFα (Homo sapiens (Human), UniProt P01375)
Test: TNF induced HEK-Blue assay
Type: cell-based
Details: TNFα 0.5 ng/ml; HEK-Blue-CD40L cells, NF-κB-driven secreted alkaline phosphatase reporter; 18 h
Protocol: Test compounds serially diluted in DMSO were plated in an assay plate (Labcyte, Cat. #LP-0200) at final concentrations ranging from 0.004 μM to 25 μM. TNFα (final concentration 0.5 ng/ml) or CD40L (final concentration 30 ng/ml) in assay buffer [DMEM, 4.5 g/l glucose (Gibco, Cat. 21063-029), 10% FBS (Sigma, F4135), 1% Penicillin-Streptomycin (Gibco, Cat. 15140-122), 1% Anti-Anti (Gibco, Cat. 15240-112) and 2 mM L-glutamine (Gibco, Cat. 25030-081)] was then added to the assay plate. After a 30 minute pre-incubation at 37° C. and 5% CO2, HEK-Blue-CD40L cells (InvivoGen, Cat. Code hkb-cd40) containing a NF-κB-driven secreted alkaline phosphatase reporter gene were seeded into the assay plate at a density of 20,000 cells per well. This plate was then incubated for 18 h at 37° C. and 5% CO2. Secreted alkaline phosphatase expression was measured using QUANTI-Blue (InvivoGen, Cat. Code rep-qb1) according to manufacturer's specifications and the assay plate was read on a PerkinElmer Envision at 620 nm.
Inhibition data for the test compound over a range of concentrations was plotted as percentage inhibition of the test compound (100%=maximum inhibition). IC50 values were determined after correcting for background [(sample read−mean of low control)/(mean of high control−mean of low control)] where by the low control is DMSO without stimulation and high control is DMSO with stimulation. The IC50 is defined as the concentration of test compound which produces 50% inhibition and was quantified using the 4 parameter logistic equation to fit the data.
Table 5 lists the IC50 values measured in the TNF induced HEK-Blue assay for Examples 1 to 40 of this invention.

Sequence of TNFα (P01375 77-233): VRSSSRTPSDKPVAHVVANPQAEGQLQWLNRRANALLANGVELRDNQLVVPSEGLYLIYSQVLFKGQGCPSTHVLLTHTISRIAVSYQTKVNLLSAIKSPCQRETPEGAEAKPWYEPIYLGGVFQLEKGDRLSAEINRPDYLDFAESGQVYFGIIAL

SMILES | IC50 [µM]
COc1ccc(-c2ccc3nc4n(c3n2)C(c2ccccc2OC(F)F)CC4F)cn1 (single isomer, unassigned) [Example 18 (e2), 8-(2-(difluoromethoxy)phenyl)-6-fluoro-2-(6-methoxypyridin-3-yl)-7,8-dihydro-6H-pyrrolo[2′,1′:2,3]imidazo[4,5-b]pyridine] | 10 to 25
CC(C)(O)c1ccc(-c2ccc3nc4n(c3n2)C(c2ccccc2C(F)(F)F)CC4O)cc1 (single isomer, unassigned) [Example 1 (e3), 2-(4-(2-Hydroxypropan-2-yl)phenyl)-8-(2-(trifluoromethyl)phenyl)-7,8-dihydro-6H-pyrrolo[2′,1′:2,3]imidazo[4,5-b]pyridin-6-ol] | 1 to 10
CC(C)(O)c1ccc(-c2ccc3nc4n(c3n2)C(c2ccccc2C(F)(F)F)CC4F)cc1 (single isomer, unassigned) [Example 14 (e3), 2-(4-(6-Fluoro-8-(2-(trifluoromethyl)phenyl)-7,8-dihydro-6H-pyrrolo[2′,1′:2,3]imidazo[4,5-b]pyridin-2-yl)phenyl)propan-2-ol] | 1 to 10
CC(C)(O)c1ccc(-c2ccc3nc4n(c3n2)C(c2c(F)cccc2C(F)(F)F)CC4)cc1 (racemic) [Example 32 (e2), 2-(4-(8-(2-fluoro-6-(trifluoromethyl)phenyl)-7,8-dihydro-6H-pyrrolo[2′,1′:2,3]imidazo[4,5-b]pyridin-2-yl)phenyl)propan-2-ol] | < 1
CC(C)(O)c1ccc(-c2ccc3nc4n(c3n2)C(c2cc(F)ccc2C(F)(F)F)CC4)cc1 (single isomer, unassigned) [Example 34 (e1), 2-(4-(8-(5-fluoro-2-(trifluoromethyl)phenyl)-7,8-dihydro-6H-pyrrolo[2′,1′:2,3]imidazo[4,5-b]pyridin-2-yl)phenyl)propan-2-ol] | < 1
CC(C)(O)c1ccc(-c2ccc3nc4n(c3n2)C(c2ccccc2OC(F)F)CC4)cc1 (racemic) [Example 26 (rac), 2-(4-(8-(2-(difluoromethoxy)phenyl)-7,8-dihydro-6H-pyrrolo[2′,1′:2,3]imidazo[4,5-b]pyridin-2-yl)phenyl)propan-2-ol] | < 1
CC(C)(O)c1ccc(-c2ccc3nc4n(c3n2)C(c2c(F)cccc2C(F)(F)F)CC4O)cc1 (single isomer, unassigned) [Example 3 (e2), 8-(2-fluoro-6-(trifluoromethyl)phenyl)-2-(4-(2-hydroxypropan-2-yl)phenyl)-7,8-dihydro-6H-pyrrolo[2′,1′:2,3]imidazo[4,5-b]pyridin-6-ol] | < 1
CC(C)(O)c1ccc(-c2ccc3nc4n(c3n2)C(c2ccccc2OC(F)(F)F)CC4F)cc1 (stereo not shown) [Example 22 (e3), 2-(4-(6-fluoro-8-(2-(trifluoromethoxy)phenyl)-7,8-dihydro-6H-pyrrolo[2′,1′:2,3]imidazo[4,5-b]pyridin-2-yl)phenyl)propan-2-ol] | 1 to 10
Cn1cc(-c2ccc3nc4n(c3n2)C(c2ccccc2OC(F)F)CC4F)cn1 (stereo not shown) [Example 19 (e3), 8-(2-(difluoromethoxy)phenyl)-6-fluoro-2-(1-methyl-1H-pyrazol-4-yl)-7,8-dihydro-6H-pyrrolo[2′,1′:2,3]imidazo[4,5-b]pyridine] | 1 to 10
CC(C)(O)c1ccc(-c2ccc3nc4n(c3n2)C(c2ccccc2OC(F)F)CC4)cc1 (single isomer, unassigned) [Example 26 (e1), 2-(4-(8-(2-(difluoromethoxy)phenyl)-7,8-dihydro-6H-pyrrolo[2′,1′:2,3]imidazo[4,5-b]pyridin-2-yl)phenyl)propan-2-ol] | < 1
FC(F)Oc1ccccc1C1CC(F)c2nc3ccc(-c4cnc(N5CCOCC5)nc4)nc3n21 (stereo not shown) [Example 17 (DM), 4-(5-(8-(2-(difluoromethoxy)phenyl)-6-fluoro-7,8-dihydro-6H-pyrrolo[2′,1′:2,3]imidazo[4,5-b]pyridin-2-yl)pyrimidin-2-yl)morpholine] | < 1
CC(C)(O)c1ccc(-c2ccc3nc4n(c3n2)C(c2c(F)cccc2C(F)(F)F)CC4F)cc1 (single isomer, unassigned) [Example 23 (e2), 2-(4-(6-fluoro-8-(2-fluoro-6-(trifluoromethyl)phenyl)-7,8-dihydro-6H-pyrrolo[2′,1′:2,3]imidazo[4,5-b]pyridin-2-yl)phenyl)propan-2-ol] | 1 to 10
CC(C)(O)c1ccc(-c2ccc3nc4n(c3n2)C(c2ccccc2C2CC2)CC4F)cc1 (stereo not shown) [Example 21 (e3), 2-(4-(8-(2-cyclopropylphenyl)-6-fluoro-7,8-dihydro-6H-pyrrolo[2′,1′:2,3]imidazo[4,5-b]pyridin-2-yl)phenyl)propan-2-ol] | 1 to 10
COc1ccccc1C1CC(O)c2nc3ccc(-c4ccc(C(C)(C)O)cc4)nc3n21 (single isomer, unassigned) [Example 12 (e3), 2-(4-(2-hydroxypropan-2-yl)phenyl)-8-(2-methoxyphenyl)-7,8-dihydro-6H-pyrrolo[2′,1′:2,3]imidazo[4,5-b]pyridin-6-ol] | 10 to 25
CC(C)(O)c1ccc(-c2ccc3nc4n(c3n2)C(c2cc(F)ccc2C(F)(F)F)CC4)cc1 (racemic) [Example 34 (rac), 2-(4-(8-(5-fluoro-2-(trifluoromethyl)phenyl)-7,8-dihydro-6H-pyrrolo[2′,1′:2,3]imidazo[4,5-b]pyridin-2-yl)phenyl)propan-2-ol] | < 1
CC(C)(O)c1ccc(-c2ccc3nc4n(c3n2)C(c2ccccc2C(F)(F)F)CC4O)cc1 (single isomer, unassigned) [Example 1 (e2), 2-(4-(2-Hydroxypropan-2-yl)phenyl)-8-(2-(trifluoromethyl)phenyl)-7,8-dihydro-6H-pyrrolo[2′,1′:2,3]imidazo[4,5-b]pyridin-6-ol] | 1 to 10
CC(C)(O)c1ccc(-c2ccc3nc4n(c3n2)C(c2ccccc2C2CC2)CC4O)cc1 (stereo not shown) [Example 9 (e1), 8-(2-cyclopropylphenyl)-2-(4-(2-hydroxypropan-2-yl)phenyl)-7,8-dihydro-6H-pyrrolo[2′,1′:2,3]imidazo[4,5-b]pyridin-6-ol] | < 1
COc1ccc(-c2ccc3nc4n(c3n2)C(c2ccccc2OC(F)F)CC4)cn1 (racemic) [Example 29 (rac), 8-(2-(difluoromethoxy)phenyl)-2-(6-methoxypyridin-3-yl)-7,8-dihydro-6H-pyrrolo[2′,1′:2,3]imidazo[4,5-b]pyridine] | 1 to 10
CC(C)(O)c1ccc(-c2ccc3nc4n(c3n2)C(c2c(F)cccc2C(F)(F)F)CC4)cc1 (racemic) [Example 32 (rac), 2-(4-(8-(2-fluoro-6-(trifluoromethyl)phenyl)-7,8-dihydro-6H-pyrrolo[2′,1′:2,3]imidazo[4,5-b]pyridin-2-yl)phenyl)propan-2-ol] | < 1
CC(C)(O)c1ccc(-c2ccc3nc4n(c3n2)C(c2c(F)cccc2C(F)(F)F)CC4O)cc1 (stereo not shown) [Example 3 (e4), 8-(2-fluoro-6-(trifluoromethyl)phenyl)-2-(4-(2-hydroxypropan-2-yl)phenyl)-7,8-dihydro-6H-pyrrolo[2′,1′:2,3]imidazo[4,5-b]pyridin-6-ol] | 1 to 10
CC(C)(O)c1ccc(-c2ccc3nc4n(c3n2)C(c2c(F)cccc2C(F)(F)F)CC4O)cc1 (single isomer, unassigned) [Example 3 (e1), 8-(2-fluoro-6-(trifluoromethyl)phenyl)-2-(4-(2-hydroxypropan-2-yl)phenyl)-7,8-dihydro-6H-pyrrolo[2′,1′:2,3]imidazo[4,5-b]pyridin-6-ol] | < 1
CC(C)(O)c1ccc(-c2ccc3nc4n(c3n2)C(c2cc(F)ccc2C(F)(F)F)CC4O)cc1 (single isomer, unassigned) [Example 13 (e3), 8-(5-fluoro-2-(trifluoromethyl)phenyl)-2-(4-(2-hydroxypropan-2-yl)phenyl)-7,8-dihydro-6H-pyrrolo[2′,1′:2,3]imidazo[4,5-b]pyridin-6-ol] | 1 to 10
COc1ccccc1C1CC(O)c2nc3ccc(-c4ccc(C(C)(C)O)cc4)nc3n21 (single isomer, unassigned) [Example 12 (e4), 2-(4-(2-hydroxypropan-2-yl)phenyl)-8-(2-methoxyphenyl)-7,8-dihydro-6H-pyrrolo[2′,1′:2,3]imidazo[4,5-b]pyridin-6-ol] | 1 to 10
CC(C)(O)c1ccc(-c2ccc3nc4n(c3n2)C(c2cc(C(F)(F)F)ccc2C(F)(F)F)CC4O)cc1 (stereo not shown) [Example 8 (DM), 8-(2,5-bis(trifluoromethyl)phenyl)-2-(4-(2-hydroxypropan-2-yl)phenyl)-7,8-dihydro-6H-pyrrolo[2′,1′:2,3]imidazo[4,5-b]pyridin-6-ol] | 1 to 10
Cc1ccc(C(F)(F)F)cc1C1CC(O)c2nc3ccc(-c4ccc(C(C)(C)O)cc4)nc3n21 (stereo not shown) [Example 7 (DM), 2-(4-(2-hydroxypropan-2-yl)phenyl)-8-(2-methyl-5-(trifluoromethyl)phenyl)-7,8-dihydro-6H-pyrrolo[2′,1′:2,3]imidazo[4,5-b]pyridin-6-ol] | 1 to 10
